For ten compounds, EC50 results are on record in patent US12344610B2, “APOL1 inhibitors and methods of use” (Maze Therapeutics, Inc., priority 2022, dated 2025).

The structures appear in SMILES notation. Like-named read-outs stand apart in the source and are kept apart here.

Type in all cases: cell-based
The test system of experiment [1] is HEK293 clonal cell line overexpressing APOL1 G1. Description: APOL1 G1 HEK293 cell rescue assay (Example B3). Conditions: geometric mean of at least 2 runs, † = single run, ¥ = concentration at 50% rescue estimated (no sigmoidal curve). The procedure, abridged:
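Rescue of cell death caused by APOL1 G1 overexpression was measured in a clonal HEK293 line. Compounds were tested in duplicate on one plate, and EC50s were geometric means across at least two runs on different days. Some values are estimated 50%-rescue concentrations where curve fitting failed.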

Experiment [2] deals with Trypanosoma brucei Lister 427 VSG221 with APOL1 G1 recombinant protein. Briefly: APOL1 G1 trypanosome cell rescue assay (Example B5). Conditions: geometric mean of at least 2 assay runs, † = single assay run. Here is the method: (§1) APOL1 G0/G1/G2 viability assay for measurement of cytotoxicity reversal by compound in trypanosomes (APOL1 G0/G1/G2 trypanosome cell rescue assay).
(§2) APOL1 protein expression and purification. The mature from of APOL1 proteins, residues 28-398, were expressed from a pET28a vector with an N-terminal His-tag and TEV cleavage site. Proteins were expressed in Escherichia coli BL21-CodonPlus (DE3)-RIPL cells. Liter cultures of terrific broth were grown at 37° C. until an OD600 of ˜0.8 was reached and then induced with isopropyl β-D-1-thiogalactopyranoside (IPTG; final concentration of 500 μM). Afterwards, cultures were grown for 3 hours at 37° C. For protein purification, cell pellets were resuspended in lysis buffer (50 mM Tris, pH 8.5, 5 mM EDTA, 0.5 mM DTT, 0.5 mM PMSF) supplemented with a cocktail of protease inhibitors. Cells were lysed by sonication, centrifuged, and the resulting pellet was collected. The homogenized pellet was resuspended in wash buffer (50 mM Tris, pH 8.5, 0.5 M NaCl, 5 mM EDTA, 0.5 mM DTT, 0.5 mM PMSF, protease inhibitor cocktail) and collected by centrifugation. Inclusion body dissolution was then conducted as previously reported (PNAS 112(9) (2015) 2894-2899; www.pnas.org/cgi/doi/10.1073/pnas.1421953112; herein incorporated by reference in its entirety). The solubilized APOL1 protein was applied to a nickel column (HisTrap, GE Life Sciences) preequilibrated in buffer A (50 mM Tris, pH 8.5, 0.15 M NaCl, 1% zwittergent 3-14, protease inhibitor cocktail). The resin was washed with buffer B (50 mM Tris, pH 8.5, 0.15 M NaCl, 0.1% DDM) and TEV cleavage was conducted on column overnight. Afterwards, the column was washed with buffer B, followed by His-washing buffer (50 mM Tris, pH 8.5, 0.15 M NaCl, 0.1% DDM, 10 mM imidazole). The protein was then removed from the resin using His-elution buffer (50 mM Tris, pH 8.5, 0.15 M NaCl, 0.1% DDM, 250 mM imidazole). The sample was further purified by size exclusion chromatography using a Superdex 200 Increase column (GE Life Sciences) in 50 mM Tris, pH 8.5, 0.15 M NaCl, and 0.1% DDM buffer. All APOL1 proteins (G0, G1, and G2) were generated at Viva Biotech (Shanghai) Ltd.
(§3) Modified HMI-9 media preparation (https://tryps.rockefeller.edu/trypsru2_culture_media_preparation.html; herein incorporated by reference in its entirety). Trypanosomes were cultured in modified HMI-9 media consisting of IMDM (ThermoFisher, 12440053), 10% heat-inactivated FBS (Gibco, 10082-147), 10% Serum Plus (Sigma-Aldrich, 14008C), 1×HMI-9 supplement stock, and 1% hypoxanthine stock. The 10×HMI-9 supplement stock was made by dissolving 280 mg bathocuproine disulfonic acid (Sigma-Aldrich, 146625), 1820 mg cysteine (add after bathocuproine) (Sigma-Aldrich, 30089), 1100 mg pyruvic acid (Sigma-Aldrich, 107360), 100 mg uracil (Sigma-Aldrich, U0750), 100 mg cytosine (Sigma-Aldrich, C3506) and 140 μL 2-mercaptoethanol (Sigma-Aldrich, M3148) in 1000 mL of water. The resulting solution was aliquoted and stored at −20° C. The hypoxanthine stock was made by dissolving 4 g of NaOH into 1000 mL of water. Afterwards, 13.6 g hypoxanthine (Sigma-Aldrich, H9377) was added to this mixture. The resulting solution was aliquoted and stored at −20° C.
(§4) Assay Setup. Trypanosoma brucei Lister 427 VSG221 (ATCC, PRA-382) cells were cultured in modified HMI-9 media. All experiments were performed in 384-well, white, solid bottom, tissue culture treated plates (Greiner, 781080). Assay ready plates were generated with duplicate 11-point compound dilution series that consisted of 2-fold stepwise dilutions (0.4% DMSO final). To each well, was added 20 μL of 2 μg/mL of APOL1 G0, G1, or G2 recombinant protein in modified HMI-9 media using a MultiDrop Combi (final APOL1 protein concentration=[…]). Trypanosomes were counted using a hemacytometer and diluted in modified HMI-9 media to a concentration of 1.25×10^4 cell/mL. […]

Experiment [3] deals with Trypanosoma brucei Lister 427 VSG221 with APOL1 G0 recombinant protein. Briefly: APOL1 G0 trypanosome cell rescue assay (Example B5). Particulars: geometric mean of at least 2 assay runs, † = single assay run. As to the method: as §1, §2, §3, §4
For experiment [4], the system named is HEK293 cells overexpressing APOL1 G2. Description: APOL1 G2 HEK293 cell rescue assay (reversal of cell death caused by overexpression of APOL1). Particulars: geometric mean of at least 2 assay runs, † = single assay run. The procedure, abridged:
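Each compound tested in duplicate wells on one plate per run, with values usually the geometric mean across at least two runs on different days, occasionally from one run only. Read-out: concentration giving half-maximal rescue of APOL1 G2 overexpression-induced death of HEK293 cells.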

The subject of experiment [5] is Trypanosoma brucei Lister 427 VSG221 with APOL1 G2 recombinant protein. Briefly: APOL1 G2 trypanosome cell rescue assay (Example B5). Particulars: geometric mean of at least 2 assay runs, † = single assay run. As to the method: as §1, §2, §3, §4
[6] abbreviates: HEK293 clonal line overexpressing APOL1 G1.
The mark [7] stands for this setting: Trypanosoma brucei, 20 h, read-out: APOL1 G1 Trypanosome Rescue EC50, Trypanosoma brucei Lister 427 VSG221 with APOL1 G1 recombinant protein, 20 hours, CellTiter-Glo.
The mark [8] stands for this setting: Trypanosoma brucei, 20 h, read-out: APOL1 G0 Trypanosome Rescue EC50, Trypanosoma brucei Lister 427 VSG221 with APOL1 G0 recombinant protein, 20 hours, CellTiter-Glo.
[9] abbreviates: Trypanosoma brucei, 20 h, read-out: APOL1 G2 Trypanosome Rescue EC50, Trypanosoma brucei Lister 427 VSG221 with APOL1 G2 recombinant protein, 20 hours, CellTiter-Glo.
The mark [10] stands for this setting: Homo sapiens, HEK293, HEK293 clonal line overexpressing APOL1 G1.
The mark [11] stands for this setting: Homo sapiens, HEK293, HEK293 overexpressing APOL1 G2.

Broadly, the EC50 is the concentration needed to bring the measured effect to its halfway point.

Consider `CC(CO)(c1ncc(OCCN2CCC3(CC2)C(=O)Nc2ccc(Cl)cc23)cc1C(F)(F)F)S(C)(=O)=O` (single isomer, unassigned) [Compound 402, 5-chloro-1′-[2-({6-[(2S or 2R)-1-hydroxy-2-methanesulfonylpropan-2-yl]-5-(trifluoromethyl)pyridin-3-yl}oxy)ethyl]-1,2-dihydrospiro[indole-3,4′-piperidin]-2-one], for which the EC50 was 35.7 nM in experiment [1] (setting [6]); 42.7 nM in experiment [2] (setting [7]); 33.6 nM in experiment [3] (setting [8]); 23.8 nM in experiment [4] (HEK293 overexpressing APOL1 G2); 16.5 nM in experiment [5] (setting [9]).
With `O=C1CCc2cc(OCCN3CCC4(CC3)C(=O)Nc3ccc(Cl)cc34)cnc2N1[C@H]1C[C@@H](O)C1` [Compound 190, 5-chloro-1′-[2-({7-oxo-8-[(cis)-3-hydroxycyclobutyl]-5,6,7,8-tetrahydro-1,8-naphthyridin-3-yl}oxy)ethyl]-1,2-dihydrospiro[indole-3,4′-piperidin]-2-one], the EC50 in experiment [1] (setting [10]) is 105 nM; in experiment [2] (setting [7]), 104 nM; in experiment [3] (setting [8]), 92.1 nM; in experiment [4] (setting [11]), 54.7 nM; in experiment [5] (setting [9]), 35.7 nM.
`O=C(NC1CCS(=O)(=O)C1)c1ccc(OCCN2CCC3(CC2)C(=O)Nc2ccc(Cl)cc23)cc1F` (centres unmarked) [Compound 241, 4-(2-{5-chloro-2-oxo-1,2-dihydrospiro[indole-3,4′-piperidin]-1′-yl}ethoxy)-N-(1,1-dioxo-1λ^6-thiolan-3-yl)-2-fluorobenzamide]: the EC50 in experiment [1] (setting [10]) was 217 nM; in experiment [2] (setting [7]), 258 nM; in experiment [3] (setting [8]), 177 nM; in experiment [4] (setting [11]) it was 72.1 nM; in experiment [5] (setting [9]), 63.3 nM.
For `CS(=O)(=O)C1(c2ccc(OCCN3CCC4(CC3)C(=O)Nc3ccc(Cl)cc34)cc2)CC(O)C1` (centres unmarked) [Compound 268, 5-chloro-1′-{2-[4-(3-hydroxy-1-methanesulfonylcyclobutyl)phenoxy]ethyl}-1,2-dihydrospiro[indole-3,4′-piperidin]-2-one], the EC50 in experiment [1] (setting [6]) was 211 nM; in experiment [2] (read-out: APOL1 G1 Trypanosome Rescue EC50, Trypanosoma brucei Lister 427 VSG221 with APOL1 G1 recombinant protein, 20 hours, CellTiter-Glo), 121 nM; in experiment [3] (read-out: APOL1 G0 Trypanosome Rescue EC50, Trypanosoma brucei Lister 427 VSG221 with APOL1 G0 recombinant protein, 20 hours, CellTiter-Glo), 108 nM; in experiment [4] (HEK293 overexpressing APOL1 G2), 53.4 nM; in experiment [5] (read-out: APOL1 G2 Trypanosome Rescue EC50, Trypanosoma brucei Lister 427 VSG221 with APOL1 G2 recombinant protein, 20 hours, CellTiter-Glo), 32.7 nM.
Take `O=C(c1ccc(OCCN2CCC3(CC2)C(=O)N(CCO)c2ccc(Cl)cc23)cc1C(F)(F)F)N1CCS(=O)(=O)CC1` [Compound 271, 4-(4-{2-[5-chloro-1-(2-hydroxyethyl)-2-oxo-1,2-dihydrospiro[indole-3,4′-piperidin]-1′-yl]ethoxy}-2-(trifluoromethyl)benzoyl)-1λ^6-thiomorpholine-1,1-dione]: the EC50 was 340 nM in experiment [1] (setting [10]); 50.7 nM in experiment [2] (setting [7]); 51 nM in experiment [3] (setting [8]); 152 nM in experiment [4] (setting [11]); 15.9 nM in experiment [5] (setting [9]).
As for `CC(=O)c1ncc(OCCN2CCC3(CC2)C(=O)Nc2ccc(Cl)cc23)cc1C(F)(F)F` [Compound 294, 1′-(2-{[6-acetyl-5-(trifluoromethyl)pyridin-3-yl]oxy}ethyl)-5-chloro-1,2-dihydrospiro[indole-3,4′-piperidin]-2-one], the EC50 in experiment [1] (setting [10]) is 65.6 nM; in experiment [2] (setting [7]), 89 nM; in experiment [3] (setting [8]), 61.9 nM; in experiment [4] (setting [11]) it was 23.3 nM; in experiment [5] (setting [9]), 21.4 nM.
Turning to `CC(=O)c1ncc(OCCN2CCC3(CC2)C(=O)Nc2ccc(C(F)F)cc23)cc1C(F)(F)F` [Compound 295, 1′-(2-{[6-acetyl-5-(trifluoromethyl)pyridin-3-yl]oxy}ethyl)-5-(difluoromethyl)-1,2-dihydrospiro[indole-3,4′-piperidin]-2-one], the EC50 in experiment [1] (setting [10]) was 112 nM; in experiment [2] (setting [7]), 40.2 nM; in experiment [3] (setting [8]), 32.6 nM; in experiment [4] (setting [11]), 43.6 nM; in experiment [5] (setting [9]), 11.1 nM.
For `CC(=O)c1ncc(OCCN2CCC3(CC2)C(=O)Nc2ccc(C#N)cc23)cc1C(F)(F)F` [Compound 298, 1′-(2-{[6-acetyl-5-(trifluoromethyl)pyridin-3-yl]oxy}ethyl)-2-oxo-1,2-dihydrospiro[indole-3,4′-piperidine]-5-carbonitrile], the EC50 in experiment [1] (setting [10]) was 218 nM; in experiment [2] (setting [7]), 156 nM; in experiment [3] (setting [8]), 119 nM; in experiment [4] (setting [11]), 81.8 nM; in experiment [5] (setting [9]) it was 56.6 nM.
On to `O=C1Nc2ccc(Cl)cc2C12CCN(CCOc1cnc(C3(O)CC3)nc1)CC2` [Compound 308, 5-chloro-1′-(2-{[2-(1-hydroxycyclopropyl)pyrimidin-5-yl]oxy}ethyl)-1,2-dihydrospiro[indole-3,4′-piperidin]-2-one], for which the EC50 is 196 nM in experiment [1] (setting [10]); 435 nM in experiment [2] (setting [7]); 335 nM in experiment [3] (setting [8]); 112 nM in experiment [4] (setting [11]); 150 nM in experiment [5] (setting [9]).
Take `C[C@]1(O)C[C@@H](N2C(=O)CCc3cc(OCCN4CCC5(CC4)C(=O)Nc4c(I)cc(Cl)cc45)cnc32)C1` [Compound 329, 5-chloro-7-iodo-1′-[2-({7-oxo-8-[(cis)-3-hydroxy-3-methylcyclobutyl]-5,6,7,8-tetrahydro-1,8-naphthyridin-3-yl}oxy)ethyl]-1,2-dihydrospiro[indole-3,4′-piperidin]-2-one]: the EC50 in experiment [1] (setting [10]) was 96.1 nM; in experiment [2] (setting [7]), 240 nM; in experiment [3] (setting [8]), 199 nM; in experiment [4] (setting [11]), 56.9 nM; in experiment [5] (setting [9]), 67.3 nM.
